One assay deals with BACE (Homo sapiens, UniProt P56817). The experiment in a line: In vitro enzymatic BACE FRET assay. Type of assay: biochemical. As to conditions: average IC50, enzyme assay; read-out: BACE 1 FRET assay. In a few lines:
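Fluorescence […] after Tris quench reports cleavage of a 50 nM quenched peptide substrate over 1 h. Beforehand, 0.2 nM enzyme sits 1 h with inhibitor dilutions. Buffer: 0.05 M acetate pH 4.2, 100 uM genapol, 10% DMSO final.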

A further assay has as its system Aβ40. The assay can be described thus: In vitro BACE cell-based assay (Aβ40 sandwich ELISA, cells stably expressing APP). Particulars: Homo sapiens. In short, it runs like this: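 Read-out is Aβ40 in cell supernatants, quantified by sandwich ELISA (capture 3 h, detection 2 h, both 4° C) with Delfia time-resolved fluorescence. Cells stably expressing APP were dosed across 10 concentrations from 100 μM or 10 μM top, 0.1% DMSO final; IC50 fitted from percent of control.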
(ELISA stands for enzyme-linked immunosorbent assay.)

The test system of the next assay is Abeta 40. The experiment in a line: In vivo inhibition of beta-secretase: Abeta 40 reduction in CSF and brain of the rat. As to conditions: after 4 hrs; for inhibition in vivo at 10 mg/kg: 10 mpk. The source says:
In Vivo Inhibition of Beta-Secretase
Several animal models, including mouse, rat, dog, and monkey, may be used to screen for inhibition of beta-secretase activity in vivo following administration of a test compound sample. Animals used in this invention can be wild type, transgenic, or gene knockout animals. For example, the Tg2576 mouse model, prepared and conducted as described in Hsiao et al., 1996, Science 274, 99-102, and other non-transgenic or gene knockout animals are useful to analyze in vivo inhibition of Amyloid beta peptide (Abeta) production in the presence of inhibitory test compounds. Generally, 2 to 18 month old Tg2576 mice, gene knockout mice or non-transgenic animals are administered test compounds formulated in vehicles, such as cyclodextran, phosphate buffers, hydroxypropyl methylcellulose or other suitable vehicles. One to twenty-four hours following the administration of compound, animals are sacrificed, and brains as well as cerebrospinal fluid (CSF) and plasma are removed for analysis of A-beta levels and drug or test compound concentrations (Dovey et al., 2001, Journal of Neurochemistry, 76,173-181) Beginning at time 0, animals are administered by oral gavage, or other means of delivery such as intravenous injection, an inhibitory test compound of up to 100 mg/kg in a standard, conventional formulation, such as 2% hydroxypropyl methylcellulose, 1% Tween80. A separate group of animals receive 2% hydroxypropyl methylcellulose, 1% Tween80 alone, containing no test compound, and serve as a vehicle-control group. At the end of the test period, animals are sacrificed and brain tissues, plasma or cerebrospinal fluid are collected. Brains are either homogenized in 10 volumes (w/v) of 0.2% diethylamine (DEA) in 50 mM NaCl (Best et al., 2005, Journal of Pharmacology and Experimental Therapeutics, 313, 902-908), or in 10 volumes of 0.5% TritonX-100 in Tris-buffered saline (pH at about 7.6). Homogenates are centrifuged at 355,000 g, 4° C. for 30 minutes. CSF or brain supernatants are then analyzed for the presence of A-beta peptide by specific sandwich ELISA assays based on ECL (Electrochemiluminescence) technology. For example, rat Abeta40 is measured using biotinylated-4G8 (Signet) as a capture antibody and Fab40 (an in-house antibody specific to the C-terminal of Abeta40) as a detection antibody. For example, 4 hours after administration of 30 mg/kg oral dose of the test compound in 2% hydroxypropyl methylcellulose, 1% Tween80 (pH2.2) to 200 g male Sprague Dawley rats, amyloid beta peptide levels are measured for reduction by X % and Y % in cerebrospinal fluid and brain, respectively, when compared to the levels measured in the vehicle-treated rats. • Actual vehicles used: Oral: 2% HPMC, 1% Tween80, pH 2.2 • IV: 5% EtOH, 45% Propylene glycol in 5% Dextrose
The compounds of the invention may be shown to reduce the formation and/or deposition of amyloid beta peptide in the cerebrospinal fluid (CSF) as well as in the brain of a mouse or rat at either 3 mpk, 10 mpk or 30 mpk (mpk=mg compound per kg weight of the animal) dosing concentrations after 4 hrs.

Where [1] appears, read: HEK293, average IC50, read-out: HEK cell assay.
The mark [2] stands for this setting: Abeta 40, rat CSF, read-out: % reduction of rat CSF levels at 10 pmk.
[3] abbreviates: Abeta 40, rat brain, read-out: % reduction of rat brain levels at 10 mpk.
[4] abbreviates: HEK293, average IC50, cell assay, HEK cells.

Like-named read-outs stand apart in the source and are kept apart here.

BACE, sequence (P56817 46-501, species assumed): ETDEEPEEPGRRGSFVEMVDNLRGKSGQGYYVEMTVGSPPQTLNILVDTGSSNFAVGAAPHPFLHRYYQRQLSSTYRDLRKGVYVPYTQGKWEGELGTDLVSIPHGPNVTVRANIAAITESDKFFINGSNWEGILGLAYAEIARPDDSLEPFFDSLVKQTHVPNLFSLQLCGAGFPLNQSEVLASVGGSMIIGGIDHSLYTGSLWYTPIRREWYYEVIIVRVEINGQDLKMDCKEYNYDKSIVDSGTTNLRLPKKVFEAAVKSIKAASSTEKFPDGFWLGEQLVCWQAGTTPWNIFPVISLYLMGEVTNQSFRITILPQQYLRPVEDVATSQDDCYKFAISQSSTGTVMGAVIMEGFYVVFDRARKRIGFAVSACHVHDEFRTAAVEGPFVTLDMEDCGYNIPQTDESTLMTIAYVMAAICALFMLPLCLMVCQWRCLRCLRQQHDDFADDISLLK

For the molecule `CC(C)(C)COc1cc2c(c(F)n1)Oc1ccc(-c3cccnc3F)cc1[C@@]21COCC(N)=N1` [Example 250, (5S)-3-(2,2-dimethylpropoxy)-1-fluoro-7-(2-fluoro-3-pyridinyl)-6′H-Spiro[chromeno[2,3-c]pyridine-5,3′-[1,4]oxazin]-5′-amine], the IC50 on BACE turned out to be 0.6 nM; with Aβ40 (setting [1]), 2.8 nM. For the same molecule, the inhibition in vivo at 10 mg/kg with Abeta 40 (setting [2]) and in the assay with Abeta 40 (setting [3]) was 72% in each case.

Take `NC1=N[C@@]2(COC1)c1cc(-c3cccnc3F)ccc1Oc1ncc(-c3ccc(F)cc3)cc12` [Example 91, (S)-3-(4-fluorophenyl)-7-(2-fluoropyridin-3-yl)-2′,6′-dihydrospiro[chromeno[2,3-b]pyridine-5,3′-[1,4]oxazin]-5′-amine]: the IC50 at BACE is 0.5 nM; with Aβ40 (setting [4]), 0.7 nM. Further, the inhibition in vivo at 10 mg/kg in the assay on Abeta 40 (setting [2]) turned out to be 29%; with Abeta 40 (setting [3]), 3%.

For the molecule `NC1=N[C@@]2(COC1)c1cc(-c3cccnc3F)ccc1Oc1cnc(N3CCC(F)(F)CC3)cc12` [Example 32, (S)-3-(4,4-difluoropiperidin-1-yl)-7-(2-fluoropyridin-3-yl)-2′,6′-dihydrospiro[chromeno[2,3-c]pyridine-5,3′-[1,4]oxazin]-5′-amine], the IC50 at BACE is 0.6 nM; with Aβ40 (setting [4]) it was 1.2 nM. Further, the inhibition in vivo at 10 mg/kg in the assay with Abeta 40 (setting [2]) was found to be 37%; in the assay with Abeta 40 (setting [3]), 26%.

Take `NC1=N[C@@]2(COC1)c1cc(-c3cc(F)ccc3F)ccc1Oc1ncc(-c3ccnc(F)c3)cc12` [Example 220, (S)-7-(2,5-difluorophenyl)-3-(2-fluoropyridin-4-yl)-2′,6′-dihydrospiro[chromeno[2,3-b]pyridine-5,3′-[1,4]oxazin]-5′-amine]: the IC50 at BACE was 2 nM; in the assay on Aβ40 (setting [1]) it was 4.4 nM. Further, the figures for the inhibition in vivo at 10 mg/kg with Abeta 40 (setting [2]) and in the assay on Abeta 40 (setting [3]) were 38% and 2%, respectively.

`CC(C)(F)COc1cc(F)c2c(c1)[C@]1(CCOC(N)=N1)c1cc(-c3cccnc3F)ccc1O2` [Example 182, (S)-4′-fluoro-2′-(2-fluoro-2-methylpropoxy)-7′-(2-fluoropyridin-3-yl)-5,6-dihydrospiro[[1,3]oxazine-4,9′-xanthen]-2-amine]: the IC50 on BACE was found to be 2.5 nM; with Aβ40 (setting [1]) it was 4.1 nM. The inhibition in vivo at 10 mg/kg in the assay with Abeta 40 (setting [2]) is 59%; in the assay with Abeta 40 (setting [3]) it was 30%.

Consider `NC1=N[C@@]2(CCO1)c1cc(-c3cccnc3F)ccc1Oc1c(F)cc(-c3cccnc3)cc12` [Example 168, (S)-4′-fluoro-7′-(2-fluoropyridin-3-yl)-2′-(pyridin-3-yl)-5,6-dihydrospiro[[1,3]oxazine-4,9′-xanthen]-2-amine], for which the IC50 was determined as 3.5 nM at BACE and 6.3 nM with Aβ40 (setting [1]). In addition, the figures for the inhibition in vivo at 10 mg/kg in the assay with Abeta 40 (setting [2]) and with Abeta 40 (setting [3]) were 44% and 18%, respectively.

In the case of `NC1=N[C@@]2(COC1)c1cc(-c3cccnc3F)ccc1Oc1c(F)cc(-c3ccnc(F)c3)cc12` [Example 36A, (S)-4′-fluoro-7′-(2-fluoropyridin-3-yl)-2′-(2-fluoropyridin-4-yl)-2,6-dihydrospiro[[1,4]oxazine-3,9′-xanthen]-5-amine], the values for the IC50 at BACE and with Aβ40 (setting [4]) were 0.4 nM and 2.9 nM, respectively. Also, the figures for the inhibition in vivo at 10 mg/kg in the assay with Abeta 40 (setting [2]) and in the assay with Abeta 40 (setting [3]) were 26% and 25%, respectively.

As to `CC(C)(C)COc1cnc2c(c1)[C@]1(COCC(N)=N1)c1cc(-c3cccnc3F)ccc1O2` [Example 55, (S)-7-(2-fluoropyridin-3-yl)-3-(neopentyloxy)-2′,6′-dihydrospiro[chromeno[2,3-b]pyridine-5,3′-[1,4]oxazin]-5′-amine], the IC50 came to 0.8 nM at BACE and 0.4 nM in the assay on Aβ40 (setting [1]). The inhibition in vivo at 10 mg/kg in the assay with Abeta 40 (setting [2]) came to 65%; in the assay with Abeta 40 (setting [3]), 51%.

For the molecule `CC1(C#Cc2cc(F)c3c(c2)[C@]2(COCC(N)=N2)c2cc(-c4cccnc4F)ccc2O3)COC1` [Example 41, (S)-4′-fluoro-7′-(2-fluoropyridin-3-yl)-2′-((3-methyloxetan-3-yl)ethynyl)-2,6-dihydrospiro[[1,4]oxazine-3,9′-xanthen]-5-amine], the IC50 on BACE is 0.5 nM; in the assay with Aβ40 (setting [4]) it was 1.9 nM. Also, the figures for the inhibition in vivo at 10 mg/kg in the assay with Abeta 40 (setting [2]) and in the assay on Abeta 40 (setting [3]) were 13% and 23%, respectively.

Take `NC1=N[C@@]2(COC1)c1cc(-c3cccnc3F)ccc1Oc1c2cc(N2CCC(F)(F)CC2)nc1F` [Example 129, (S)-3-(4,4-difluoropiperidin-1-yl)-1-fluoro-7-(2-fluoropyridin-3-yl)-2′,6′-dihydrospiro[chromeno[2,3-c]pyridine-5,3′-[1,4]oxazin]-5′-amine 2,2,2-trifluoroacetate]: the IC50 at BACE was found to be 0.9 nM; in the assay with Aβ40 (setting [4]), 4.9 nM. In addition, the inhibition in vivo at 10 mg/kg with Abeta 40 (setting [2]) came to 22%; with Abeta 40 (setting [3]), 17%.

For the molecule `NC1=N[C@]2(COC1)c1cc(C3=CCOCC3)ccc1Oc1ccc(-c3cccnc3F)cc12` [Example 64, (R)-2′-(3,6-dihydro-2H-pyran-4-yl)-7′-(2-fluoropyridin-3-yl)-2,6-dihydrospiro[[1,4]oxazine-3,9′-xanthen]-5-amine], the IC50 at BACE amounted to 0.6 nM; in the assay with Aβ40 (setting [4]), 5.2 nM. Moreover, the inhibition in vivo at 10 mg/kg stood at 8% in the assay on Abeta 40 (setting [2]) and 4% in the assay on Abeta 40 (setting [3]).

In the case of `NC1=N[C@@]2(CCO1)c1cc(-c3cccnc3F)ccc1Oc1c(F)cc(N3CCC(F)(F)CC3)cc12` [Example 185, (4S)-2′-(4,4-difluoro-1-piperidinyl)-4′-fluoro-7′-(2-fluoro-3-pyridinyl)-5,6-dihydrospiro[1,3-oxazine-4,9′-xanthen]-2-amine], the IC50 on BACE was 4.4 nM; with Aβ40 (setting [1]), 9.6 nM. The “% reduction of rat CSF levels” value with Abeta 40 (Abeta 40, rat CSF, at 30 mpk) worked out at 53% at 30 mpk. Also, the “% reduction of rat brain levels” value with Abeta 40 (Abeta 40, rat brain, at 30 mpk) is listed as 26% at 30 mpk.

With `CC(C)(F)COc1cc(F)c2c(c1)[C@]1(CCOC(N)=N1)c1cc(-c3cccnc3)ccc1O2` [Example 176, (S)-4′-fluoro-2′-(2-fluoro-2-methylpropoxy)-7′-(pyridin-3-yl)-5,6-dihydrospiro[[1,3]oxazine-4,9′-xanthen]-2-amine], the IC50 worked out at 6.1 nM at BACE and 8.5 nM in the assay on Aβ40 (setting [1]). The inhibition in vivo at 10 mg/kg in the assay with Abeta 40 (setting [2]) came to 30%; in the assay with Abeta 40 (setting [3]) it was 13%.

`NC1=N[C@@]2(CCO1)c1cc(-c3cccnc3F)ccc1Oc1c(F)cc(-c3ccncc3)cc12` [Example 166, (S)-4′-fluoro-7′-(2-fluoropyridin-3-yl)-2′-(pyridin-4-yl)-5,6-dihydrospiro[[1,3]oxazine-4,9′-xanthen]-2-amine]: the values for the IC50 on BACE and with Aβ40 (setting [1]) were 6 nM and 8.2 nM, respectively. Besides, the inhibition in vivo at 10 mg/kg stood at 42% in the assay with Abeta 40 (setting [2]) and 25% with Abeta 40 (setting [3]).

Consider `NC1=N[C@@]2(CCO1)c1cc(-c3cccnc3F)ccc1Oc1ncc(-c3ccnc(F)c3)cc12` [Example 60, (S)-7-(2-fluoropyridin-3-yl)-3-(2-fluoropyridin-4-yl)-5′,6′-dihydrospiro[chromeno[2,3-b]pyridine-5,4′-[1,3]oxazin]-2′-amine], for which the IC50 is 12.2 nM on BACE and 11 nM in the assay with Aβ40 (setting [1]). In addition, the inhibition in vivo at 10 mg/kg with Abeta 40 (setting [2]) came out at 56%; with Abeta 40 (setting [3]), 25%.

Values taken from patent US9012446B2, “Amino-oxazines and amino-dihydrothiazine compounds as beta-secretase modulators and methods of use” (Amgen Inc., priority 2010, dated 2015).
